Structures are written as SMILES.

What is called IC50 is the concentration that inhibits the measured activity by half. Low readings indicate inhibition by little substance, high ones a need for much substance.

The test addresses HSP90 (Homo sapiens, UniProt P07900). The test can be described thus: HSP90 inhibition (HSP90 IC50). It counts as biochemical.
In turn, `CC[C@@H](C)Nc1cc(C(=O)NC2CC3CCC(C2)N3c2ccc(C(=O)C3CC3)cn2)c(OC)cc1C(N)=O` (stereo partly drawn) [N-{8-[5-(cyclopropylcarbonyl)pyridin-2-yl]-8-azabicyclo[3.2.1]oct-3-endo-yl}-2-(methyloxy)-5-{[(1R)-1-methylpropyl]amino}benzene-1,4-dicarboxamide] returned an IC50 of under 500 nM. Regarding `COc1cccc(C(=O)N[C@H]2C[C@H]3CC[C@@H](C2)N3c2ccc(C(=O)Nc3cc(C)cc(C)c3)cn2)c1C` [N-(3,5-dimethylphenyl)-6-[3-endo-({[2-methyl-3-(methyloxy)phenyl]carbonyl}amino)-8-azabicyclo[3.2.1]oct-8-yl]pyridine-3-carboxamide], the concentration for half-maximal inhibition (IC50) was 2000 to 10000 nM. The result for `COc1cccc(C(=O)NC2CC3CCC(C2)N3c2ccc(C(=O)N[C@@H](C)c3ccc(N4CCN(C)CC4)cc3)cn2)c1C` (stereo partly drawn) [6-[3-endo-({[2-methyl-3-(methyloxy)phenyl]carbonyl}amino)-8-azabicyclo[3.2.1]oct-8-yl]-N-{(1S)-1-[4-(4-methylpiperazin-1-yl)phenyl]ethyl}pyridine-3-carboxamide] reads under 500 nM. `CC(=O)c1ccc(N2[C@@H]3CC[C@H]2C[C@@H](NC(=O)c2ccc(C(N)=O)c(NCC(C)(C)C)c2)C3)nc1` [N4-[8-(5-acetylpyridin-2-y)-8-azabicyclo[3.2.1]oct-3-endo-yl]-2-[(2,2-dimethylpropyl)amino]benzene-1,4-dicarboxamide] yielded a concentration for half-maximal inhibition (IC50) of under 500 nM.

Consider `COc1ccc(NC(=O)c2ccc(N3[C@@H]4CC[C@H]3C[C@@H](NC(=O)c3cccc(OC)c3C)C4)nc2)cc1` [6-[3-endo-({[2-methyl-3-(methyloxy)phenyl]carbonyl}amino)-8-azabicyclo[3.2.1]oct-8-yl]-N-[4-(methyloxy)phenyl]pyridine-3-carboxamide], for which the half-inhibitory concentration (IC50) lay in the range of 500 to 999 nM. The compound `CC(=O)c1ccc(N2[C@@H]3CC[C@H]2C[C@@H](NC(=O)c2ccc(C(N)=O)c(NCC4CCCO4)c2)C3)nc1` (stereo partly drawn) [N4-[8-(5-acetylpyridin-2-yl)-8-azabicyclo[3.2.1]oct-3-endo-yl]-2-[(tetrahydrofuran-2-ylmethyl)amino]benzene-1,4-dicarboxamide] returned an IC50 of under 500 nM. Compound `COc1cccc(C(=O)NC2CC3CCC(C2)N3c2ccc(C(=O)NCC3CCNC3)cn2)c1C` (centres unmarked) came in with an IC50 of under 500 nM. Compound `CCCC(CCC)Nc1cc(C(=O)N[C@H]2C[C@H]3CC[C@@H](C2)N3c2ccc(C(C)=O)cn2)ccc1C(N)=O` [N4-[8-(5-acetylpyridin-2-yl)-8-azabicyclo[3.2.1]oct-3-endo-yl]-2-[(1-propylbutyl)amino]benzene-1,4-dicarboxamide] returned an IC50 of under 500 nM.

In turn, `CC(=O)c1ccc(N2[C@@H]3CC[C@H]2C[C@@H](NC(=O)c2ccc(C(N)=O)c(NCC4CCNC4)c2)C3)nc1` (stereo partly drawn) [N4-[8-(5-acetylpyridin-2-yl)-8-azabicyclo[3.2.1]oct-3-endo-yl]-2-[(pyrrolidin-3-ylmethyl)amino]benzene-1,4-dicarboxamide] showed an IC50 of under 500 nM. The compound `NC(=O)c1ccc(C(=O)NC2CC3CCC(C2)N3c2ccc(C(=O)NC3CCCC3)cn2)cc1NCC1CC1` (stereo not drawn) [N4-(8-{5-[(cyclopentylamino)carbonyl]pyridin-2-yl}-8-azabicyclo[3.2.1]oct-3-endo-yl)-2-[(cyclopropylmethyl)amino]benzene-1,4-dicarboxamide] had a half-inhibitory concentration (IC50) of under 500 nM. Compound `COc1cccc(C(=O)N[C@H]2C[C@H]3CC[C@@H](C2)N3c2ccc(C(=O)NCc3ccccc3C)cn2)c1C` [6-[3-endo-({[2-methyl-3-(methyloxy)phenyl]carbonyl}amino)-8-azabicyclo[3.2.1]oct-8-yl]-N-[(2-methylphenyl)methyl]pyridine-3-carboxamide] came in with a 50% inhibitory concentration (IC50) of under 500 nM. `NC(=O)c1ccc(C(=O)N[C@H]2C[C@H]3CC[C@@H](C2)N3c2ccc(C(=O)C3CC3)cn2)cc1Nc1ccncc1` [N4-{8-[5-(cyclopropylcarbonyl)pyridin-2-yl]-8-azabicyclo[3.2.1]oct-3-endo-yl}-2-(pyridin-4-ylamino)benzene-1,4-dicarboxamide] gave an IC50 of under 500 nM. The compound `COc1ccc(Nc2cc(C(=O)N[C@H]3C[C@H]4CC[C@@H](C3)N4c3ccc(C(N)=O)cn3)ccc2C(N)=O)cc1OCCN(C)C` [N4-{8-[5-(aminocarbonyl)pyridin-2-yl]-8-azabicyclo[3.2.1]oct-3-endo-yl}-2-{[3-{[2-(dimethylamino)ethyl]oxy}-4-(methyloxy)phenyl]amino}benzene-1,4-dicarboxamide] returned an IC50 of under 500 nM. For the compound `CCN(CC)CCCNC(=O)c1ccc(N2[C@@H]3CC[C@H]2C[C@@H](NC(=O)c2cccc(OC)c2C)C3)nc1` [N-[3-(diethylamino)propyl]-6-[3-endo-({[2-methyl-3-(methyloxy)phenyl]carbonyl}amino)-8-azabicyclo[3.2.1]oct-8-yl]pyridine-3-carboxamide], the IC50 was 500 to 999 nM. Next, `COc1cccc(C(=O)N[C@H]2C[C@H]3CC[C@@H](C2)N3c2ccc(C(=O)NCCCN(C)C)cn2)c1C` [N-[3-(dimethylamino)propyl]-6-[3-endo-({[2-methyl-3-(methyloxy)phenyl]carbonyl}amino)-8-azabicyclo[3.2.1]oct-8-yl]pyridine-3-carboxamide]: 500 to 999 nM. `CCC(CC)Nc1cc(C(=O)N[C@H]2C[C@H]3CC[C@@H](C2)N3c2ccc(C(=O)CCN3CCCCC3)cn2)ccc1C(N)=O` [2-[(1-ethylpropyl)amino]-N4-{8-[5-(3-piperidin-1-ylpropanoyl)pyridin-2-yl]-8-azabicyclo[3.2.1]oct-3-endo-yl}benzene-1,4-dicarboxamide] returned an IC50 of under 500 nM. `Cc1cc(C(=O)NC2CC3CCC(C2)N3c2ccc(C(=O)N[C@H]3CCCN(C)C3)cn2)c(C)cc1C(N)=O` (stereo partly drawn) [2,5-dimethyl-N-{8-[5-({[(3S)-1-methylpiperidin-3-yl]amino}carbonyl)pyridin-2-yl]-8-azabicyclo[3.2.1]oct-3-endo-yl}benzene-1,4-dicarboxamide] gave a 50% inhibitory concentration (IC50) of under 500 nM. Compound `COc1cc(F)c(CNC(=O)c2ccc(N3[C@@H]4CC[C@H]3C[C@@H](NC(=O)c3cccc(OC)c3C)C4)nc2)c(F)c1` [N-{[2,6-difluoro-4-(methyloxy)phenyl]methyl}-6-[3-endo-({[2-methyl-3-(methyloxy)phenyl]carbonyl}amino)-8-azabicyclo[3.2.1]oct-8-yl]pyridine-3-carboxamide] showed a half-inhibitory concentration (IC50) of under 500 nM.

`CC(=O)c1ccc(N2[C@@H]3CC[C@H]2C[C@@H](NC(=O)c2ccc(C(N)=O)c(N)c2)C3)nc1` [N4-[8-(5-acetylpyridin-2-yl)-8-azabicyclo[3.2.1]oct-3-endo-yl]-2-aminobenzene-1,4-dicarboxamide]: the IC50 was in the range of 500 to 999 nM. The compound `CCC(COC)Nc1cc(C(=O)N[C@H]2C[C@H]3CC[C@@H](C2)N3c2ccc(C(C)=O)cn2)ccc1C(N)=O` (stereo partly drawn) [N4-(8-(5-acetylpyridin-2-yl)-8-azabicyclo[3.2.1]oct-3-endo-yl]-2-({1-[(methyloxy)methyl]propyl}amino) benzene-1,4-dicarboxamide] showed a half-maximal inhibitory concentration (IC50) of under 500 nM. The result for `C[C@H](NC(=O)c1ccc(N2[C@@H]3CC[C@H]2C[C@@H](NC(=O)c2ccc(C(N)=O)c(NC4CCN(S(C)(=O)=O)CC4)c2)C3)nc1)c1ccc(N2CCN(C)CC2)cc1` [N4-(8-{5-[({(1S)-1-[4-(4-methylpiperazin-1-yl)phenyl]ethyl}amino)carbonyl]pyridin-n-2-yl}-8-azabicyclo[3.2.1]oct-3-endo-yl)-2-{[1-(methylsulfonyl)piperidin-4-yl]amino}benzene-1,4-dicarboxamide] reads under 500 nM.

In turn, `COc1cccc(C(=O)NC2CC3CCC(C2)N3c2ccc(C(=O)NC[C@H](C)O)cn2)c1C` (stereo partly drawn) [N-[(2S)-2.hydroxypropyl]-6-[3-endo-({[2-methyl-3-(methyloxy)phenyl]carbonyl}amino)-8-azabicyclo[3.2.1]oct-8-yl]pyridine-3-carboxamide] came in with an IC50 of 2000 to 10000 nM. The result for `CON(C)C(=O)c1ccc(N2[C@@H]3CC[C@H]2C[C@@H](NC(=O)c2ccc(C(N)=O)c(NCC4CC4)c2)C3)nc1` [2-[(cyclopropylmethyl)amino]-N4-[8-(5-{[methyl(methyloxy)amino]carbonyl}pyridin-2-yl)-8-azabicyclo[3.2.1]oct-3-endo-yl]benzene-1,4-dicarboxamide] reads 1000 to 2000 nM; that for `COc1ccc(C(C)NC(=O)c2ccc(N3[C@@H]4CC[C@H]3C[C@@H](NC(=O)c3cccc(OC)c3C)C4)nc2)cc1OC` (stereo partly drawn) [N-{1-[3,4-bis(methyloxy)phenyl]ethyl}-6-[3-endo-({[2-methyl-3-(methyloxy)phenyl]carbonyl}amino)-8-azabicyclo[3.2.1]oct-8-yl]pyridine-3-carboxamide], 500 to 999 nM; that for `NC(=O)c1ccc(C(=O)N[C@H]2C[C@H]3CC[C@@H](C2)N3c2ccc(C(=O)C3CC3)cn2)cc1NCC1CC1` [N4-{8-[5-(cyclopropylcarbonyl)pyridin-2-yl]-8-azabicyclo[3.2.1]oct-3-endo-yl}-2-[(cyclopropylmethyl)amino]benzene-1,4-dicarboxamide], under 500 nM. Next, `C[C@H](NC(=O)c1ccc(N2C3CCC2CC(NC(=O)c2ccc(C(N)=O)c(OC4CCC4)c2)C3)nc1)c1ccc(N2CCN(C)CC2)cc1` (stereo partly drawn) [2-(cyclobutyloxy)-N4-(8-{5-[({(1S)-1-[4-(4-methylpiperazin-1-yl)phenyl]ethyl}amino)carbonyl]pyridin-2-yl}-8-azabicyclo[3.2.1]oct-3-endo-yl)benzene-1,4-dicarboxamide]: 500 to 999 nM; `NC(=O)c1ccc(C(=O)N[C@H]2C[C@H]3CC[C@@H](C2)N3c2ccc(C(=O)C3CC3)cn2)cc1NCC(F)(F)C(F)(F)F` [N4-{8-[5-(cyclopropylcarbonyl)pyridln-2-yl]-8-azabicyclo[3.2.1]oct-3-endo-yl}-2-[(2,2,3,3,3-pentafluoropropyl)amino]benzene-1,4-dicarboxamide]: under 500 nM. In turn, `COCCNc1cc(C(=O)N[C@H]2C[C@H]3CC[C@@H](C2)N3c2ccc(C(N)=O)cn2)ccc1C(N)=O` [N4-{8-[5-(aminocarbonyl)pyridin-2-yl]-8-azabicyclo[3.2.1]oct-3-endo-yl}-2-{[2-(methyloxy)ethyl]amino}benzene-1,4-dicarboxamide] came in with a half-inhibitory concentration (IC50) of under 500 nM.

With `COc1cccc(C(=O)NC2CC3CCC(C2)N3c2ccc(C(=O)N[C@@H](C)c3ccc(Cl)cc3)cn2)c1C` (stereo partly drawn) [N-[(1S)-1-(4-chlorophenyl)ethyl]-6-[3-endo-({[2-methyl-3-(methyloxy)phenyl]carbonyl}amino)-8-azabicyclo[3.2.1]oct-8-yl]pyridine-3-carboxamide], the IC50 is under 500 nM.

For the origin of these results see US8012956B2, “Tropane compounds” (Exelixis, Inc., priority 2007, dated 2011).
